Test results from patent US20230346969A1, “INTERMEDIATE FOR PREPARING ANTIBODY-DRUG CONJUGATE (ADC), PREPARATION METHOD THEREFOR, AND USE THEREOF” (priority 2020, published 2023).

Columns and labels:
HT29 = experiment: Cell viability assay (CCK-8); type: cell-based; conditions: ADCs; CCK-8, 96 hours; cell '3128' [sic], Colon; read-out: IC50 (95% Cl)
Experimental: (§1) Cell viability was determined using Cell Counting Kit 8 (CCK-8). Cells were seeded into 96-well plates at 3000-10000 cells/well. After incubation overnight, drugs were added at different concentrations. Plates were incubated in a 5% CO2, 37° C. humidified chamber for 96 hours. CCK8 reagent was added thereto and the plates were placed back to the incubator until the absorbance at 450 nm of untreated control cells was greater than 1.0. Growth inhibition was measured as the percent growth relative to untreated cells. Dose response curve was generated from the mean values of two or three tests, and IC50 values were calculated using Prism GraphPad software.
(§2) The anti-tumor efficacy of different payloads on different tumor cell lines was detected by CCK-8, and the results are shown in FIG. 5.

CFPAC-1 = experiment: Cell viability assay (CCK-8); type: cell-based; conditions: ADCs; CCK-8, 96 hours; cell CPAC-1 [sic], Pancreas; read-out: IC50 (95% Cl)
Experimental: as §1, §2

[1] = Dose tolerability, single intravenous dose acute toxicity; type: in vivo; conditions: BALB/c mice
Experimental: Dose tolerability assay was performed in BALB/c mice (3 mice per dose). The drug was given in a single intravenous dose. The injection doses of hRS7-VK-PTX were 60, 80 and 100 mg/kg, and the injection doses of hRS7-VK-MMAE were 60 and 80 mg/kg, respectively. Toxicity was assessed by observing mouse behavior, weight loss and survival. The weight change rate (%) was calculated as: (body weight - body weight before treatment)/(body weight before treatment) × 100%.
The safety of relatively high doses of hRS7-VK-PTX in BALB/c mice was studied by an acute toxicity experiment with single intravenous administration in mice.

COLO205 cells = experiment: COLO205 mouse transplanted tumor model; type: in vivo, BALB/c nu/nu mice; conditions: COLO205 xenograft, intraperitoneal, days 7, 11, 15, 19; p<0.001 vs hRS7-VK-SN38
Source text: Five-week-old female athymic BALB/c nu/nu mice were purchased from Charles River Company (Shanghai, China), and mice were randomly divided into 5-6 mice/group. Animal handling and procedures were approved and performed in accordance with the requirements of the Institutional Animal Care and Use Committee (IACUC) of Shanghai Institute of Materia Medica, Chinese Academy of Sciences. All models were inoculated subcutaneously on the side of mice. BXPC-3, HCC1806 and NCIH1688 cells were established by injecting and homogenizing 5 × 10^6 cells in Matrigel matrix. COLO205 cells were established by injecting and suspending 1 × 10^7 cells in Matrigel matrix. […] The percentage of inhibition was calculated by the following formula: (1-average tumor volume of the treatment group/average tumor volume of the control group)×100%. Toxicity of the different treatment groups was assessed by monitoring weight loss.
Mice inoculated with COLO205 cells (n = 6 per group) were treated with ADC or control drug on days 7, 11, 15, and 19, and tumor volume was measured two or three times a week. Statistical significance between treatment and control groups was assessed using a two-tailed t-test. ***P<0.001, comparing hRS7-VK-PTX with hRS7; p<0.001, comparing hRS7-VK-PTX with hRS7-VK-SN38, data = mean ± SD, the results are shown in FIG. 1c.

NCIH1688 cells = experiment: Transplanted tumor from NCIH1688 cells alone (not expressing Trop-2); type: in vivo, BALB/c-nu/nu mice; conditions: hRS7-VK-PTX 10 mg/kg, hRS7-VK-MMAE 3 mg/kg
Source text: (§3) Five-week-old female athymic BALB/c nu/nu mice were purchased from Charles River Company (Shanghai, China), and mice were randomly divided into 5-6 mice/group. Animal handling and procedures were approved and performed in accordance with the requirements of the Institutional Animal Care and Use Committee (IACUC) of Shanghai Institute of Materia Medica, Chinese Academy of Sciences. All models were inoculated subcutaneously on the side of mice. BXPC-3, HCC1806 and NCIH1688 cells were established by injecting and homogenizing 5 × 10^6 cells in Matrigel matrix. COLO205 cells were established by injecting and suspending 1 × 10^7 cells in Matrigel matrix. After the tumor volume reached about 200 mm^3, the tumor-bearing mice were randomly divided into treatment groups and a control group according to the tumor volume. Each drug was administered intraperitoneally. […] The percentage of inhibition was calculated by the following formula: (1-average tumor volume of the treatment group/average tumor volume of the control group)×100%. Toxicity of the different treatment groups was assessed by monitoring weight loss.
(§4) A mixture of Trop-2-positive tumor cells BXPC-3 and Trop-2-negative tumor cells NCIH1688 or NCIH1688 cells alone were inoculated into BALB/c-nu/nu mice (FIG. 1e, right panel), and the “bystander effect” of hRS7-VK-PTX was detected in a mouse transplanted tumor model.

SKBR3 cells = experiment: Endocytosis and intracellular localization of ADC by confocal microscopy; type: cell-based; conditions: 5 µg/mL, 37° C., 45 or 90 min
Experimental: SKBR3 cells were incubated with 5 µg/mL of hRS7-VK-PTX or hRS7-VK-SN38 in a 24-well plate (1 × 10^4 cells/well) in a 5% CO2, 37° C. incubator for 45 or 90 min. Cells were washed once with PBS, fixed and permeabilized. After washing, cells were stained with 488 goat anti-human IgG (H&L) or 555 anti-rabbit IgG F(ab′)2 fragment. Nuclear DNA was stained with 4′,6-dimidyl-2-phenylindole (DAPI). Immunofluorescence was recorded with an Olympus BK71 confocal microscope.
SKBR3 cells were incubated with ADC molecules at 37° C. for 45 or 90 min. Unbound ADC was removed by washing cells in a culture medium, then the cells were fixed and permeabilized. The marker proteins LAMP-1, GM130 and clathrin were detected with their respective antibodies and a secondary antibody conjugated to Alex®555 (red). Anti-Trop-2 ADC was detected with DyLight®488-conjugated secondary antibody (green). DAPI was used to stain nuclear DNA (blue).

[2] = tested on: mixture of Trop-2-positive tumor cells BXPC-3 and Trop-2-negative tumor cells NCIH1688; experiment: Bystander effect: transplanted tumor from mixture of BXPC-3 and NCIH1688 cells; type: in vivo, BALB/c-nu/nu mice; conditions: 10 mg/kg, transplanted tumors heterogeneously expressing Trop-2
Source text: as §3, §4

## hRS7-VK-PTX
HT29
  IC50: 0.00347 µM
CFPAC-1
  IC50: 0.0168 µM
[1]; single 100 mg/kg intravenous dose
  toxicity or weight loss compared with placebo: no significant toxicity or weight loss
[1]; single intravenous dose, highest dose 100 mg/kg
  maximum tolerated dose (MTD): not reached
COLO205 cells
  inhibition of transplanted tumor: more effective than hRS7-VK-SN38
NCIH1688 cells
  killing effect on transplanted tumors not expressing Trop-2: had no such effect
SKBR3 cells
  internalization and intracellular localization: co-localization of hRS7-VK-PTX molecule with lysosomes and clathrin heavy chain
[2]
  tumor growth inhibition index (TGI): 99.5%
